Data as given in patent publication US9505753B2, “Inhibitors of D-amino acid oxidase” (THE JOHNS HOPKINS UNIVERSITY, priority 2012, dated 2016).

What was measured:
[1] = target: human recombinant D-amino acid oxidase (Homo sapiens (Human), UniProt P14920); test: In vitro D-amino acid oxidase (DAAO) assay, 96-well plate; format: biochemical; conditions: human recombinant DAAO; D-serine 5 mM, FAD 1 μM, 20 min, room temperature, Tris buffer pH 8.5; read-out: Inhibition of DAAO IC50
Protocol: (§1) A reliable 96-well plate D-amino acid oxidase (DAAO) assay was developed based on previously published reports (J. Biol. Chem. 277: 27782 (2002)). […] All reactions were carried out for 20 min at room temperature in a 100-μL volume in Tris buffer (50 mM, pH 8.5). Additionally, stock solutions and serial dilutions of potential DAO inhibitors were made in 10:90 DMSO:buffer with a final assay DMSO concentration of 1%.

Porcine DAAO = Porcine DAAO (Sus scrofa (Pig), UniProt P00371); test: In vitro D-amino acid oxidase (DAAO) assay, porcine enzyme; format: biochemical; conditions: values marked *: Porcine DAAO was used to measure inhibitory potency; read-out: Inhibition of DAAO IC50
Chain of Porcine DAAO (P00371 whole entry): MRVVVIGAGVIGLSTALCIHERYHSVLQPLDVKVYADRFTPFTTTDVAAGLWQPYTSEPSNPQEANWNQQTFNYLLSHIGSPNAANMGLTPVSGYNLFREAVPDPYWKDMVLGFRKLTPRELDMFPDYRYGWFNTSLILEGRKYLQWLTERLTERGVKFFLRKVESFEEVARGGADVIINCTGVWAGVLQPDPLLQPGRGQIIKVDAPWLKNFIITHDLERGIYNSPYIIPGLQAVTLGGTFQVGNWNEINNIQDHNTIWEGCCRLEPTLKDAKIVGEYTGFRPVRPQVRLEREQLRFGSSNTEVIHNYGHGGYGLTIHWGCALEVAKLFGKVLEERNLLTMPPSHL
Protocol: as §1

Chain of human recombinant D-amino acid oxidase (P14920 whole entry): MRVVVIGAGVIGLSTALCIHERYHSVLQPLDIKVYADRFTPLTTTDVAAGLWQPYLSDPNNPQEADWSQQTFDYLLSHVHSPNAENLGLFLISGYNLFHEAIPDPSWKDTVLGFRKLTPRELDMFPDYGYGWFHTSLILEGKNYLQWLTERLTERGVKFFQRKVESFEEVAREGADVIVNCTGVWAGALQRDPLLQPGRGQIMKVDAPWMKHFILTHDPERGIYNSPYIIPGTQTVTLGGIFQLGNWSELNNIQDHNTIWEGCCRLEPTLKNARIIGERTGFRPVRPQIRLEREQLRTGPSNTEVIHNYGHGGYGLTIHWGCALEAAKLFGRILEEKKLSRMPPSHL

Row | Structure (SMILES) | IC50 [1] | IC50 (Porcine DAAO)
1 | CC(Cc1ccccc1)n1nc(O)c(=O)[nH]c1=O (stereo not drawn) [Compound 10k, 6-Hydroxy-2-(1-phenylpropan-2-yl)-1,2,4-triazine-3,5(2H,4H)-dione] | 300 nM | –
2 | O=c1[nH]c(=O)n(C[C@@H]2C[C@H]2c2ccccc2)nc1O [Compound 10n, 6-Hydroxy-2-(((1R,2R)-2-phenylcyclopropyl)methyl)-1,2,4-triazine-3,5(2H,4H)-dione] | 400 nM | –
3 | O=c1[nH]c(=O)n(Cc2cccc3[nH]ccc23)nc1O [Compound 10o, 2-((1H-indol-4-yl)methyl)-6-hydroxy-1,2,4-triazine-3,5(2H,4H)-dione] | 200 nM | –
4 | O=c1[nH]c(=O)n(Cc2cccc3cnccc23)nc1O [Compound 10p, 6-Hydroxy-2-(isoquinolin-5-ylmethyl)-1,2,4-triazine-3,5(2H,4H)-dione] | 300 nM | –
5 | O=c1[nH]c(=O)n(Cc2cccc3ccsc23)nc1O [Compound 10q, 2-(Benzo[b]thiophen-7-ylmethyl)-6-hydroxy-1,2,4-triazine-3,5(2H,4H)-dione] | 2000 nM | –
6 | O=c1[nH]c(=O)n(Cc2cccc3c(F)cccc23)nc1O [Compound 10s, 2-((5-Fluoronaphthalen-1-yl)methyl)-6-hydroxy-1,2,4-triazine-3,5(2H,4H)-dione] | 80 nM | –
7 | Cc1ccc2ccccc2c1Cn1nc(O)c(=O)[nH]c1=O [Compound 10u, 6-Hydroxy-2-((2-methylnaphthalen-1-yl)methyl)-1,2,4-triazine-3,5(2H,4H)-dione] | – | 600 nM
8 | O=c1[nH]c(=S)n(CCc2ccccc2)nc1O [Compound 16, 6-Hydroxy-2-phenethyl-3-thioxo-3,4-dihydro-1,2,4-triazin-5(2H)-one] | 50 nM | –
9 | O=C(Cn1nc(O)c(=O)[nH]c1=O)c1ccccc1 [Compound 20, 6-Hydroxy-2-(2-oxo-2-phenylethyl)-1,2,4-triazine-3,5(2H,4H)-dione] | 1000 nM | –
10 | O=c1[nH]c(=O)n(CC(O)c2ccccc2)nc1O (stereo not drawn) [Compound 21, 6-Hydroxy-2-(2-hydroxy-2-phenylethyl)-1,2,4-triazine-3,5(2H,4H)-dione] | 1000 nM | –
11 | O=c1[nH]c(=O)n(Cc2cccc3cccnc23)nc1O [Compound 25a, 6-Hydroxy-2-(quinolin-8-ylmethyl)-1,2,4-triazine-3,5(2H,4H)-dione] | 3000 nM | –
12 | O=c1[nH]c(=O)n(Cc2ccc(F)c3ccccc23)nc1O [Compound 25b, 2-((4-Fluoronaphthalen-1-yl)methyl)-6-hydroxy-1,2,4-triazine-3,5(2H,4H)-dione] | 200 nM | –
13 | Cc1ccc(Cn2nc(O)c(=O)[nH]c2=O)c2ccccc12 [Compound 25c, 6-Hydroxy-2-((4-methylnaphthalen-1-yl)methyl)-1,2,4-triazine-3,5(2H,4H)-dione] | 1000 nM | –
14 | O=c1[nH]c(=O)n(Cc2cccc3cc(Br)ccc23)nc1O [Compound 25d, 2-((6-Bromonaphthalen-1-yl)methyl)-6-hydroxy-1,2,4-triazine-3,5(2H,4H)-dione] | 50 nM | –
15 | O=c1[nH]c(=O)n(CCc2ccc(-c3ccccc3F)cc2)nc1O [Compound 30, 2-(2-(2′-Fluorobiphenyl-4-yl)ethyl)-6-hydroxy-1,2,4-triazine-3,5(2H,4H)-dione] | 80 nM | –

More lines, now with the values ahead:

Row | IC50 [1] | IC50 (Porcine DAAO) | Structure (SMILES)
16 | 300 nM | – | O=c1[nH]c(=O)n(CCn2cccn2)nc1O [Compound 10d, 2-(2-(1H-pyrazol-1-yl)ethyl)-6-hydroxy-1,2,4-triazine-3,5(2H,4H)-dione]
17 | 100 nM | – | O=c1[nH]c(=O)n(CCn2ccc3ccccc32)nc1O [Compound 10e, 2-(2-(1H-indol-1-yl)ethyl)-6-hydroxy-1,2,4-triazine-3,5(2H,4H)-dione]
18 | 300 nM | – | O=c1[nH]c(=O)n(CCn2cnc3ccccc32)nc1O [Compound 10f, 2-(2-(1H-benzo[d]imidazol-1-yl)ethyl)-6-hydroxy-1,2,4-triazine-3,5(2H,4H)-dione]
19 | 300 nM | – | O=c1[nH]c(=O)n(CCn2ccc3cccnc32)nc1O [Compound 10g, 2-(2-(1H-pyrrolo[2,3-b]pyridin-1-yl)ethyl)-6-hydroxy-1,2,4-triazine-3,5(2H,4H)-dione]
20 | 200 nM | – | O=c1[nH]c(=O)n(CCn2ncc3ccccc32)nc1O [Compound 10h, 2-(2-(1H-indazol-1-yl)ethyl)-6-hydroxy-1,2,4-triazine-3,5(2H,4H)-dione]
21 | 7000 nM | – | O=c1[nH]c(=O)n(CCn2c3ccccc3c3ccccc32)nc1O [Compound 10i, 2-(2-(9H-carbazol-9-yl)ethyl)-6-hydroxy-1,2,4-triazine-3,5(2H,4H)-dione]
22 | 1000 nM | – | O=c1[nH]c(=O)n(CCN2CCOCC2)nc1O [Compound 10j, 6-Hydroxy-2-(2-morpholinoethyl)-1,2,4-triazine-3,5(2H,4H)-dione]
23 | 900 nM | – | O=c1[nH]c(=O)n(CCc2ccccn2)nc1O [Compound 10l, 6-Hydroxy-2-(2-(pyridin-2-yl)ethyl)-1,2,4-triazine-3,5(2H,4H)-dione]
24 | 200 nM | – | O=c1[nH]c(=O)n(CCc2cc(F)cc(F)c2)nc1O [Compound 10r, 2-(3,5-Difluorophenethyl)-6-hydroxy-1,2,4-triazine-3,5(2H,4H)-dione]
25 | – | 300 nM | CCOc1ccc(CCn2nc(O)c(=O)[nH]c2=O)cc1 [Compound 10t, 2-(4-Ethoxyphenethyl)-6-hydroxy-1,2,4-triazine-3,5(2H,4H)-dione]
26 | 5000 nM | – | CN(C)CCn1nc(O)c(=O)[nH]c1=O [Compound 12a, 2-(2-(Dimethylamino)ethyl)-6-hydroxy-1,2,4-triazine-3,5(2H,4H)-dione]
27 | 9000 nM | – | CC(C)N1CCN(CCn2nc(O)c(=O)[nH]c2=O)CC1 [Compound 12b, 6-Hydroxy-2-(2-(4-isopropylpiperazin-1-yl)ethyl)-1,2,4-triazine-3,5(2H,4H)-dione]
28 | 3000 nM | – | O=c1[nH]c(=O)n(CCN2CCN(c3ccccc3F)CC2)nc1O [Compound 12c, 2-(2-(4-(2-Fluorophenyl)piperazin-1-yl)ethyl)-6-hydroxy-1,2,4-triazine-3,5(2H,4H)-dione]
29 | 700 nM | – | O=c1[nH]c(=O)n(CCN2CCc3ccccc3C2)nc1O [Compound 12d, 2-(2-(3,4-Dihydroisoquinolin-2(1H)-yl)ethyl)-6-hydroxy-1,2,4-triazine-3,5(2H,4H)-dione]
30 | – | 1000 nM | O=c1[nH]c(=O)n(CCc2ccc(N3CCOCC3)cc2)nc1O [Compound 32, 6-Hydroxy-2-(4-morpholinophenethyl)-1,2,4-triazine-3,5(2H,4H)-dione]
